Source: PMC7066107 (Investigational New Drugs, 2019)
“Also recorded” adds a separate entry of the source.

Key:
[1] = tested on: Japanese patients with advanced solid tumours
Procedure: The study consisted of two stages (Fig. 1).
Recruitment of patients to each dose level was sequential using the standard 3 + 3 study design. […] At each dose level, treatment was continued until disease progression, DLT or other adverse event (AE) that would hinder the patient’s participation in the study, or until the patient requested discontinuation from the study.
Safety, pharmacokinetics, efficacy, exploratory pharmacodynamics and genetic outcomes were assessed in this study. The safety outcomes were the incidence, type, severity and time of onset of DLTs, AEs and treatment-related AEs (TRAEs). […] In addition, the maximum tolerated dose (MTD) was determined on the basis of DLTs.
(§1) Safety endpoints were analysed in the safety population, which consisted of patients who received ≥1 dose of the study drug. Efficacy endpoints were analysed in the full analysis set, which consisted of patients who received ≥1 dose of the study drug and underwent ≥1 post-baseline efficacy assessment. A summary of AEs, TRAEs and DLTs by mapped term, appropriate thesaurus level and severity was provided for each cohort. Summary statistics, including mean, standard deviation, coefficient of variation, median, and minimum and maximum, were calculated for pharmacokinetic and pharmacodynamic parameters.
Adverse events that could be considered dose-limiting toxicities
Grade 4 neutropenia persisting for ≥5 days or requiring treatment with G-CSF
Grade 4 thrombocytopenia or grade 3 thrombocytopenia requiring platelet transfusion
Grade ≥3 non-hematologic toxicity (excluding transient electrolyte abnormalities) Abnormal
toxicity will be assessed as DLTs only if they meet the following criteria. Grade ≥3 laboratory
ALP: A grade ≥3 increase persisting for ≥3 days will be assessed as a DLT.
Diarrhoea, nausea, vomiting, skin toxicity: A grade ≥3 event persisting for ≥1 week

[2] = tested on: IDO1; conditions: following oral administration; cited from earlier work
[3] = tested on: patients with advanced or recurrent solid tumours; conditions: cited from earlier work
[4] = Plasma pharmacokinetics of navoximod in phase I study; conditions: for Dose proportionality of AUC and Cmax: 200-1000 mg
Procedure: The efficacy outcomes were the response rate, disease control rate, progression-free survival (PFS) and duration of response. Efficacy outcomes were assessed using the Response Evaluation Criteria in Solid Tumours (RECIST) version 1.1. Plasma concentrations of kynurenine and tryptophan and their ratios and the presence of UGT1A1*6 and UGT1A1*28 polymorphisms were the exploratory outcomes of this study.
as §1
Schedule for blood sampling for pharmacokinetic assessments
Visit pharmacokinetics kynurenine/tryptophan
(time window) pharmacodynamics (time
Cycle 0 Day 1 5 min before dosing (−30 min) 5 min before dosing (−30 min)
30 min after dosing (±5 min) 30 min after dosing (±5 min)
1 hr after dosing (±5 min) 1 hr after dosing (±5 min)
2 hr after dosing (±5 min) 2 hr after dosing (±5 min)
4 hr after dosing (±10 min) 4 hr after dosing (±10 min)
6 hr after dosing (±30 min) 6 hr after dosing (±30 min)
8 hr after dosing (±30 min) 8 hr after dosing (±30 min)
12 hr after dosing (±30 min) 12 hr after dosing (±30 min)
Cycle 0 Day 2 24 hr after dosing on Cycle 0 Day 1 24 hr after dosing on Cycle 0 Day 1
Cycle 0 Day 3 48 hr after dosing on Cycle 0 Day 1 –
(±2 hr), before dosing on Cycle 1
Cycle 1 Day 8 5 min before dosing (−30 min) –
Cycle 2 Day 1 5 min before dosing (−30 min) 5 min before dosing (−30 min)
12 hr after first dose (±60 min), 12 hr after first dose (±60 min),
before second dose before second dose
Cycle 4 Day 1 5 min before dosing (−30 min) –
Cycle 9 Day 1 5 min before dosing (−30 min) –
Last observation Any time –
12 hr after dosing (±60 min) 12 hr after dosing (±60 min)
(±2 hr), before dosing on Cycle 1, Day

[5] = tested on: advanced solid tumours; experiment: Efficacy by RECIST version 1.1 (best overall response, disease control, PFS); conditions: Stage 1
Procedure: The efficacy outcomes were the response rate, disease control rate, progression-free survival (PFS) and duration of response. Efficacy outcomes were assessed using the Response Evaluation Criteria in Solid Tumours (RECIST) version 1.1.
Efficacy endpoints were analysed in the full analysis set, which consisted of patients who received ≥1 dose of the study drug and underwent ≥1 post-baseline efficacy assessment.

O[C@H](C[C@H]1c2c(F)cccc2-c2cncn21)[C@H]1CC[C@H](O)CC1 [Navoximod]
Maximum tolerated dose (MTD) ([1]; Stage 1, monotherapy up to 1000 mg BID): not reached
Any TRAE, All grades ([1]; human, in vivo): 6 n
Any TRAE, Grade ≥ 3 ([1]; human, in vivo): 2 n
Chromaturia, All grades ([1]; human, in vivo): 5 n
Chromaturia, Grade ≥ 3 ([1]; human, in vivo): 0 n
Grade 4 or 5 TRAEs ([1]; human, in vivo): No grade 4 or 5 TRAEs were observed
Incidence of chromaturia ([1]; human, in vivo): 55%
Maculopapular rash, All grades ([1]; human, in vivo): 2 n
Maculopapular rash, Grade ≥ 3 ([1]; human, in vivo): 1 n
Patients with Grade ≥ 3 TRAEs ([1]; human, in vivo): 20%
Patients with TRAE chromaturia, any grade ([1]; human, in vivo): 50%
Patients with TRAE maculopapular rash, any grade ([1]; human, in vivo): 20%
Patients with TRAEs ([1]; human, in vivo): 60%
Symptomatic grade 3 or higher TRAE maculopapular rash ([1]; human, in vivo): 5%
Reduction of plasma and tissue kynurenine concentrations [2]: approximately 50%
MTD ([3]; monotherapy 100-800 mg twice daily, 22 patients): not reached
CRs or PRs ([3]; monotherapy): no CRs or PRs were observed
Half-life ([3]; monotherapy): approximately 12 h
Linearity of pharmacokinetics ([3]; monotherapy): linear pharmacokinetics
Time to peak plasma concentration ([3]; monotherapy): approximately 60 min
Decrease of plasma kynurenine levels ([3]; navoximod 400 mg, 600 mg or 800 mg, 2–4 h after administration): 25–30%
Patients with Grade 3 or higher AEs ([3]; two patients of 22, lower gastrointestinal haemorrhage, diverticulitis): 9%
Dose-corrected navoximod exposure by UGT1A1 genotype ([4]; patients with UGT1A1 −/*28): higher
Dose-corrected navoximod exposure by UGT1A1 genotype ([4]; patients with UGT1A1 −/−, −/*6 and *6/*6): similar
Dose proportionality of AUC and Cmax ([4]; single oral dose): dose-proportional
Dose proportionality of AUC and Cmax ([4]; single oral dose, listed as navoximod): linear pharmacokinetics; also recorded: changed dose-proportionally
Time at which mean plasma concentration peaked ([4]; single oral dose, Stage 1 or Stage 2): 15 to 60 min
Complete response (CR) and partial response (PR) [5]: not observed
PFS, range [5]: 9 to 259 days
Best overall response progressive disease (PD) ([5]; all doses, n = 10): five
Patients with stable disease ([5]; all doses, n = 10): 50%
Best overall response progressive disease (PD) ([5]; navoximod 400 mg): 3 n
Best overall response progressive disease (PD) ([5]; navoximod 600 mg): 2 n
